Like-named read-outs stand apart in the source and are kept apart here. Non-standard residues stand in square brackets, D forms with d. Residues, ends and D or L forms follow the SMILES beside them. No end group written: not given here.
Assays:
[1] = biological target: T1, IL-1 receptor (Homo sapiens, UniProt P14778); assay: Radioligand competition binding assay (125I-labeled IL-1α) on human monocytes; conditions: IL-1 binding antagonism on human monocytes; average of three measurements and standard error
T1 construct: confluent human monocytes, which express the IL-1 receptor; endogenous in cells; host or cells: human monocytes
T1 sequence (P14778 18-569): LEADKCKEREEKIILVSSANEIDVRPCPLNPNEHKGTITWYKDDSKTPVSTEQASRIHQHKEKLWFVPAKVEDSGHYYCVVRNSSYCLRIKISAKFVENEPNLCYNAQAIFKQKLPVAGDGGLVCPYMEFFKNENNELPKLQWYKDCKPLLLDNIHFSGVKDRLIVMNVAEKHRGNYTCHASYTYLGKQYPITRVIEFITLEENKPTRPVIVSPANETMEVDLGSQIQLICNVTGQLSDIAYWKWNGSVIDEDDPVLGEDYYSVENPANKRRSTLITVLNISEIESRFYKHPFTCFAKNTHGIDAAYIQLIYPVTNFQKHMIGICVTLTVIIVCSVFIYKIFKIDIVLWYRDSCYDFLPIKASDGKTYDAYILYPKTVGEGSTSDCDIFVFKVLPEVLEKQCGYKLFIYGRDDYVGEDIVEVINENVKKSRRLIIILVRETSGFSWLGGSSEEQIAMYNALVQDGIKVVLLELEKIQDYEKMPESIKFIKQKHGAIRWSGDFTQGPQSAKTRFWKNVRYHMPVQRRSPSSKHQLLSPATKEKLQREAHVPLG
Protocol: (§1) Radioligand competition binding assays were performed in 96-well plates containing confluent human monocytes, which express the IL-1 receptor. Wells were washed three times with binding buffer, and binding buffer was placed in each well. Peptides were resuspended in dimethyl sulfoxide at 20 mM and diluted in binding buffer to the desired starting concentration. Using a Beckman robotic system, five 3-fold dilutions were prepared, and peptide solution was transferred to duplicate receptor-containing wells. To each well, radioactive ^125Iodine-labeled IL-Ia (Amersham) was added to a final concentration of 40 pM, and the plates were placed on a shaking platform at 4° C. for 2 hr. Plates were washed with PBS using a plate washer, and bound ^125I-labeled IL-la was eluted for 10 min with 0.1 M NaOH and counted in a gamma counter. IC50 values were determined by fitting the data to a two-parameter logistic equation. In all cases, nonspecific binding was determined by the addition of 3 μM of recombinant IL-Ia.

[2] = tested on: IL-1 stimulation of IL-8 in human skin fibroblasts; assay: Inhibition of IL-1 induced IL-8 in human fibroblasts; assay type: cell-based; conditions: inhibition of IL-1 stimulation of IL-8 in human skin fibroblasts; average of three measurements and standard error; read-out: Binding (IC50 nM)
Protocol: Inhibition of IL-1 induced IL-8 in human fibroblasts was determined using normal human dermal fibroblast cells cultured in DMEM with 10% fetal calf serum in 48-well plates.
Twenty-four hours before initiation of the experiment, the medium was changed to DMEM with 0.2% fetal calf serum. Each peptide was added to confluent cells, which were then pulsed for 30 min with rIL-I,B (which was obtained from R & D Systems) at 50 pg/ml. The cells were washed four times with PBS, and fresh DMEM/0.2% fetal calf serum was added to each well. After 5 hr of incubation, the culture media were collected and analyzed by ELISA for IL-8 (which was obtained from R & D Systems). Maximal activation, with IL-1 only, was 2530±13 pg/ml of IL-8. Nonspecific activation, determined in the presence of 1000-fold excess IL-1Ra, was 30±9 pg/ml of IL-8 (n=3).

[3] = Solubility of peptide under different solvent conditions; assay type: physicochemical; conditions: 30 min room temperature
Protocol: 100 mg of each peptide was added to 100 ml total of water plus the solvents, and the solution was gently agitated for 30 min at room temperature.

[4] = Stability of peptide once dissolved in solution (1 month); assay type: physicochemical; conditions: 1 mg in 5 ml water, bicarbonate and benzyl alcohol (19, 4) or methanol (13, 14); for Stability of peptide once dissolved in solution (at 1 month), Room Temp (month): room temperature
Protocol: Each of the peptides having the sequences 13, 14, 19 and 4 were tested to determine their stability in a solution containing (preferred composition above) water, bicarbonate and either benzyl alcohol (peptide 19 and 4) or methanol (peptide 13 and 14). Each of the peptides were held for a period of 1 month at either 4° C. or at room temperature.
1 mg of each peptide was added to the water, bicarbonate and either benzyl alcohol or methanol solution and the solution was gently agitated for 1 hour at room temperature before standing at either 4° C. or at room temperature for a period of 1 month.

[5] = Human plasma stability trials; assay type: in vitro ADME; conditions: 37° C., 12 hours, read-out: ½ Life human plasma
Protocol: 1 mg of each peptide was added to the plasma and the solution was gently agitated for 2 minutes at room temperature before standing at 37° C. for a period of 12 hours.

[6] = tested on: thoroughbred having equine laminitis; assay: Effect of peptides on equine laminitis (Obel Lameness Grades); assay type: in vivo, horse; conditions: for Change in Obel Score: 1 mg intravenously, before vs 24 hours after injection, most negative = greatest improvement; for Duration (days) of effect on laminitis: single 1 mg intravenous, averaged, report by veterinarians
Protocol: Each of the peptides having the sequences 13, 14, 19 and 4 were also tested to determine their effect on equine laminitis. Each peptide was administered intravenously to a thoroughbred having equine laminitis. The peptides were prepared as compositions containing 1 mg of peptide dissolved in 5 ml of a solution comprising water, bicarbonate and either benzyl alcohol or methanol. The effect of the peptides on equine laminitis was judged by the Obel Lameness Grades, which is a system of rating degrees of lameness resulting from laminitis. […] Obel Grade III horses do resist having a foreleg lifted, and are reluctant to walk. Obel Grade IV horses will walk only if forced. The Obel Score for each of the horses was measured before administration of the peptide and 24 hours after injection of the peptide. […] The effect in reducing laminitis which was caused by one single injection of the peptides on laminitis was short-lived. Therefore, the duration of the effect of the peptides in reducing laminitis was further assessed by attending veterinarians.

[7] = biological target: T2, IL-1 receptor (IL-1R) expressed on human monocytes (human, UniProt P14778 18-569); assay: cell-based or functional assay
T2 sequence (looked up): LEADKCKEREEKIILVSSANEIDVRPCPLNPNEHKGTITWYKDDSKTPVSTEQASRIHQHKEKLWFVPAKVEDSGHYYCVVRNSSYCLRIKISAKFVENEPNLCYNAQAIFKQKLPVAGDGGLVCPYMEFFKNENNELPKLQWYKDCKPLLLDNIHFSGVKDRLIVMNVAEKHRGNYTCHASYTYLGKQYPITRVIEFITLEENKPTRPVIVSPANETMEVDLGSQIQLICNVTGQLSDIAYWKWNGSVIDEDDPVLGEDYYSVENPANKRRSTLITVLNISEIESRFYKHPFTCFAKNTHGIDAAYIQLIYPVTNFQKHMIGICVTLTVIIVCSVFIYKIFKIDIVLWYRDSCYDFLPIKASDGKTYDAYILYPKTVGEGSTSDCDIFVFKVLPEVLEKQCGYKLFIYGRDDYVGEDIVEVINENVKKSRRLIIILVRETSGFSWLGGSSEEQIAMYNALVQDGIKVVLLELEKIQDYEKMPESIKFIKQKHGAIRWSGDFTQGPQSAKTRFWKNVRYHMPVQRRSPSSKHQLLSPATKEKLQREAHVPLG

[8] = biological target: T2, IL-1 receptor (IL-1R) expressed on …; assay: radioligand competition, 40 pM 125I-IL-1α on confluent human monocytes
Protocol: as §1, with “¹²⁵Iodine-labeled” for “^125Iodine-labeled”, “¹²⁵I-labeled” for “^125I-labeled”, “IC₅₀” for “IC50”

[9] = biological target: IL-1 receptor (IL-1R) expressed on human monocytes (human) (UniProt P14778); assay: cell-based or functional assay
[10] = biological target: IL-1 receptor (IL-1R) expressed on human monocytes (human) (UniProt P14778); assay: radioligand competition, 40 pM 125I-IL-1α on confluent human monocytes
[11] = benzyl alcohol (0.1-1%) in water, benzyl alcohol (0.1-1%), 100 mg peptide in 100 ml, read-out: Solubility: Benzyl Alcohol
[12] = hydrochloric acid (0.1-1%) in water, hydrochloric acid (0.1-1%), 100 mg peptide in 100 ml water plus solvent, read-out: Solubility: Acid
[13] = methanol (1-10%) in water, methanol (1-10%), 100 mg peptide in 100 ml, read-out: Solubility: Methanol
[14] = sodium bicarbonate (0.1-1%) in water, sodium bicarbonate (0.1-1%), 100 mg peptide in 100 ml, read-out: Solubility: Base

Molecule | IC50 [2] | solubility at 30 min [3, 11] | solubility at 30 min [3, 12] | solubility at 30 min [3, 14] | Stability of peptide once dissolved in solution (at 1 month), 4° C. (month) [4] | Stability of peptide once dissolved in solution (at 1 month), Room Temp (month) [4] | half-life [5] | Change in Obel Score [6] | Duration (days) of effect on laminitis [6] | IC50, in vitro inhibition of IL-1 stimulation of IL-8 in human skin fibroblasts (rIL-1β 50 pg/ml, IL-8 ELISA) [7] | IC50 [8] | further results
CC(=O)N[C@@H](CCC(=O)O)C(=O)N[C@H](C(=O)N1CCC[C@H]1C(=O)N[C@@H](Cc1ccccc1)C(=O)N[C@H](C(=O)N[C@@H](Cc1c[nH]c2ccccc12)C(=O)N[C@@H](CCC(=O)O)C(=O)N[C@@H](CCC(=O)O)C(=O)N[C@@H](CO)C(=O)N[C@@H](CC(N)=O)C(=O)N[C@@H](C)C(=O)N[C@@H](Cc1ccc(O)cc1)C(=O)N[C@@H](Cc1ccc(O)cc1)C(=O)N[C@@H](Cc1c[nH]c2ccccc12)C(=O)N[C@@H](CCC(N)=O)C(=O)N1CCC[C@H]1C(=O)N[C@@H](Cc1ccc(O)cc1)C(=O)N[C@@H](C)C(=O)N[C@@H](CC(C)C)C(=O)N1CCC[C@H]1C(=O)N[C@@H](CC(C)C)C(=O)O)[C@@H](C)O)[C@@H](C)O [SEQ ID NO. 13, reference compound] (Ac-ETPFTWEESNAYYWQPYALPL-OH; C-terminus assumed) | 11 nM | < 1000 µg/mL | < 1000 µg/mL | < 1000 µg/mL | 21% | 1% | 46 min | −0.5 | 1 days | – | – | IC50 [1]: 11 nM; solubility at 30 min [3, 13]: > 1000 µg/mL
CC(=O)N[C@H](CC(C)C)C(=O)N1CCC[C@@H]1C(=O)N[C@H](CC(C)C)C(=O)N[C@H](C)C(=O)N[C@H](Cc1ccc(O)cc1)C(=O)N1CCC[C@@H]1C(=O)N[C@H](CCC(N)=O)C(=O)N[C@H](Cc1c[nH]c2ccccc12)C(=O)N[C@H](Cc1ccc(O)cc1)C(=O)N[C@H](Cc1ccc(O)cc1)C(=O)N[C@H](C)C(=O)N[C@H](CC(N)=O)C(=O)N[C@H](CO)C(=O)N[C@H](CCC(=O)O)C(=O)N[C@H](CCC(=O)O)C(=O)N[C@H](Cc1c[nH]c2ccccc12)C(=O)N[C@@H](C(=O)N[C@H](Cc1ccccc1)C(=O)N1CCC[C@@H]1C(=O)N[C@@H](C(=O)N[C@H](CCC(=O)O)C(=O)O)[C@H](C)O)[C@H](C)O [SEQ ID NO. 14] (Ac-[dL][dP][dL][dA][dY][dP][dQ][dW][dY][dY][dA][dN][dS][dE][dE][dW][dT][dF][dP][dT][dE]-OH; C-terminus assumed) | 11 nM | < 1000 µg/mL | < 1000 µg/mL | < 1000 µg/mL | 78% | 18% | 333 min | −1.1 | 2 days | – | – | IC50 [1]: 9.2 nM; solubility at 30 min [3, 13]: > 1000 µg/mL
CC(=O)N[C@@H](Cc1ccccc1)C(=O)N[C@@H](CCC(=O)O)C(=O)N[C@@H](Cc1c[nH]c2ccccc12)C(=O)N[C@H](C(=O)N1CCC[C@H]1C(=O)NCC(=O)N[C@@H](Cc1ccc(O)cc1)C(=O)N[C@@H](Cc1c[nH]c2ccccc12)C(=O)N[C@@H](CCC(N)=O)C(=O)N1CCC[C@H]1C(=O)N[C@@H](Cc1ccc(O)cc1)C(=O)N[C@@H](C)C(=O)N[C@@H](CC(C)C)C(=O)N1CCC[C@H]1C(=O)N[C@@H](CC(C)C)C(=O)O)[C@@H](C)O [SEQ ID NO. 19, Ac FEWTPGYWQPYALPL, reference compound] (Ac-FEWTPGYWQPYALPL-OH; C-terminus assumed) | 10 nM | > 1000 µg/mL | < 1000 µg/mL | < 1000 µg/mL | 95% | 48% | 49 min | −2.1 | 2 days | – | – | –
Ac-FTWEESNAYYWQPYALPL (also called peptide 15) [peptide of SEQ ID NO: 15 (Ac-FTWEESNAYYWQPYALPL)] | – | – | – | – | – | – | – | – | – | 16 nM | 20 nM | –
Ac-DGYDRWRQSGERYWQPYALPL (also called peptide 20) [peptide of SEQ ID NO: 20 (Ac-DGYDRWRQSGERYWQPYALPL)] | – | – | – | – | – | – | – | – | – | 19 nM | 8.1 nM | –
Ac-FEWTPGYWQPYALPL (also called peptide 19) [peptide of SEQ ID NO: 19 (Ac FEWTPGYWQPYALPL)] | – | – | – | – | – | – | – | – | – | 10 nM | 7.1 nM | –
Ac-[dL][dP][dL][dA][dY][dP][dQ][dW][dY][dR][dE]G[dS][dQ][dR][dW][dR][dD][dY]G[dD] (not fully specified (residues 12, 20); printed as Ac-LPLAYPQWYREGSQRWRDYGD) [peptide of SEQ ID NO: 21 (Ac-…, D-amino acids)] | – | – | – | – | – | – | – | – | – | – | – | IC50, in vitro inhibition of IL-1 stimulation of IL-8 in human skin fibroblasts (rIL-1β 50 pg/ml, IL-8 ELISA) [9]: 730 nM; IC50 [10]: 240 nM
Ac-TANVSSFEWTPGYWQPYALPL (also called peptide 17) [peptide of SEQ ID NO: 17 (Ac-TANVSSFEWTPGYWQPYALPL)] | – | – | – | – | – | – | – | – | – | 76 nM | 7.6 nM | –
